{"source": "patent US20230040594A1", "about": "“MILK-DERIVED POLYPEPTIDE DERIVATIVE, COMPOSITION AND METHOD FOR PREVENTING AND TREATING OBESITY” (Nanjing Maternity and Child Health Care Hospital, priority 2021, published 2023)", "key": {"[1]": {"test_system": "UCP1 protein", "assay": "UCP1 protein immunohistochemistry and Western blot in adipose tissues of obese model mice (Embodiment 6)", "assay_type": "in vivo", "conditions": "10 mg/kg i.p. once a day for 8 weeks; FIG. 13 and FIG. 14", "method": "(§1) C57BL/6J male mice at 6-8 weeks old were used as research subjects, and an experiment was carried out after adaptation to a SPF animal room for one week. The mice were fed with high-fat diet (with 60% of fat content) for 10 weeks to induce obesity phenotype in mice. At the same time, different drug concentrations (5 mg/kg and 10 mg/kg) were provided, and the milk-derived polypeptide derivatives corresponding to SEQ ID NO.5 were administered by intraperitoneal injection twice a week, with dissolved normal saline (Vehicle) as a control. […] At the same time, total protein was extracted by a RIPA lysate, and expression of the UCP1 protein in the adipose tissues was detected by a Western blot method after quantifying, SDS-PAGE electrophoresis and transmembrane.\n(§2) C57BL/6J male mice at 6-8 weeks old were used as research subjects, and an experiment was carried out after adaptation to a SPF animal room for one week. […] The mice were weighed every week for their weight changes, and at the same time, blood glucose changes of the mice were detected by a blood glucose meter. […] As mentioned above, H&E staining was also performed to observe morphological changes of lipid droplets, and expression of the UCP1 protein in adipose tissues was detected by immunohistochemistry and the Western blot methods."}, "[2]": {"test_system": "obese C57BL/6J male mice induced by high-fat diet for six months", "assay": "Body weight, blood glucose and adipose tissue volume of obese model mice (Embodiment 6)", "assay_type": "in vivo", "method": "C57BL/6J male mice at 6-8 weeks old were used as research subjects, and an experiment was carried out after adaptation to a SPF animal room for one week. The mice were fed with high-fat diet (with 60% of fat content) for six months to induce obesity phenotype in mice. After six months, the milk-derived polypeptide derivative shown by SEQ ID NO.5 (10 mg/kg) was administered by intraperitoneal injection once a day and continuously for 8 weeks. The mice were weighed every week for their weight changes, and at the same time, blood glucose changes of the mice were detected by a blood glucose meter. After intervention, the mice were killed, and then brown fat (BAT) at scapular, inguinal white adipose tissue (iWAT) and epididymal white adipose tissue (eWAT) were photographed. As mentioned above, H&E staining was also performed to observe morphological changes of lipid droplets, and expression of the UCP1 protein in adipose tissues was detected by immunohistochemistry and the Western blot methods."}, "[3]": {"test_system": "UCP1 protein", "assay": "UCP1 protein immunohistochemistry and Western blot in adipose tissues of mice with high-fat diet (Embodiment 5)", "assay_type": "in vivo", "method": "(§3) C57BL/6J male mice at 6-8 weeks old were used as research subjects, and an experiment was carried out after adaptation to a SPF animal room for one week. The mice were fed with high-fat diet (with 60% of fat content) for 10 weeks to induce obesity phenotype in mice. At the same time, different drug concentrations (5 mg/kg and 10 mg/kg) were provided, and the milk-derived polypeptide derivatives corresponding to SEQ ID NO.5 were administered by intraperitoneal injection twice a week, with dissolved normal saline (Vehicle) as a control. After 10 weeks of intervention, the mice were killed, and brown fat (BAT) at scapula and inguinal subcutaneous white adipose tissues (iWAT) were taken to be fixed with a adipose tissue fixing solution (Solarbio, G2185) for 24 hours. H&E staining and a UCP1 protein immunohistochemistry study were carried out after dehydration, paraffin embedding and sectioning. The H&E staining is performed using a kit (ab245800) from Abcam, and specific steps can be found in kit instructions. Tissue sections were subjected to the immunohistochemistry study after dewaxing and antigen repairing. Specifically, the sections were incubated overnight with UCP1 antibody (1:200, Proteintech) at 4 degrees. The antibody was diluted with PBS containing 1% of BSA, and a color reaction was carried out next day with a DAB kit from Abcam. Specific operations can be referred to kit experimental steps. At the same time, total protein was extracted by a RIPA lysate, and expression of the UCP1 protein in the adipose tissues was detected by a Western blot method after quantifying, SDS-PAGE electrophoresis and transmembrane."}, "[4]": {"test_system": "C57BL/6J male mice fed with high-fat diet", "assay": "Fasting blood glucose, blood lipid and insulin levels of mice with high-fat diet (Embodiment 4)", "assay_type": "in vivo", "conditions": "continuous intervention for 10 weeks; 5 and 10 mg/kg i.p. twice a week; FIG. 8", "method": "(§4) C57BL/6J male mice at 6-8 weeks old were used as research subjects, and an experiment was carried out after adaptation to a SPF animal room for one week. The mice were fed with high-fat diet (with 60% of fat content) for 10 weeks to induce obesity phenotype in mice. At the same time, different drug concentrations (5 mg/kg and 10 mg/kg) of the milk-derived polypeptide derivatives corresponding to SEQ ID NO.5 were provided, and were administered by intraperitoneal injection twice a week, with resolvent saline (Vehicle) as a control. The changes of the blood glucose in the mice were detected by a Roche blood glucose meter, and changes of blood lipid and insulin level in the mice were detected by Applygen and Millipore commercial kits respectively."}, "[5]": {"test_system": "adipose tissues of obese model mice", "assay": "H&E staining of adipose tissues of obese model mice (Embodiment 6)", "assay_type": "in vivo", "conditions": "10 mg/kg i.p. once a day for 8 weeks; FIG. 13", "method": "as §1, §2"}, "[6]": {"test_system": "C57BL/6J male mice fed with high-fat diet", "assay": "Glucose tolerance test (GTT) in mice with high-fat diet (Embodiment 3)", "assay_type": "in vivo", "conditions": "FIG. 6", "method": "as §4, with “dissolved normal” for “resolvent”, “control.” for “control. The changes of the blood glucose in the mice were detected by a Roche blood glucose meter, and changes of blood lipid and insulin level in the mice were detected by Applygen and Millipore commercial kits respectively.”\n(§5) Insulin Sensitivity: The mice are fasted overnight for 12 hours, and at a next day, insulin was injected by intraperitoneal injection at a standard of 0.75 U per kg of weight. Blood samples were taken from tail vein at 0 min, 15 min, 30 min, 60 min, 90 min and 120 min after the injection, and changes of the blood glucose in the mice were measured by a blood glucose meter to evaluate the insulin sensitivity of the mice. Glucose tolerance test: after fasting for 6 hours, the mice were injected with glucose by intraperitoneal injection at a concentration of 1 g per kg of weight. Blood samples were taken from tail vein at 0 min, 15 min, 30 min, 60 min, 90 min and 120 min after the injection, and changes of the blood glucose in the mice were measured by a blood glucose meter to evaluate the glucose tolerance of the mice."}, "[7]": {"test_system": "C57BL/6J male mice fed with high-fat diet", "assay": "Insulin sensitivity (ITT) in mice with high-fat diet (Embodiment 3)", "assay_type": "in vivo", "method": "as §4, with “dissolved normal” for “resolvent”, “control.” for “control. The changes of the blood glucose in the mice were detected by a Roche blood glucose meter, and changes of blood lipid and insulin level in the mice were detected by Applygen and Millipore commercial kits respectively.”\nas §5"}, "[8]": {"test_system": "brown fat (BAT) and inguinal subcutaneous white adipose tissues (iWAT)", "assay": "H&E staining of adipose tissues of mice with high-fat diet (Embodiment 5)", "assay_type": "in vivo", "conditions": "10 weeks; 5 and 10 mg/kg i.p. twice a week; FIG. 9", "method": "as §3, with “Specifically, the sections were incubated overnight with UCP1 antibody (1:200, Proteintech) at 4 degrees. The antibody was diluted with PBS containing 1% of BSA, and a color reaction was carried out next day with a DAB kit from Abcam. Specific operations can be referred to kit experimental steps.” left out"}, "[9]": {"test_system": "C57BL/6J male mice fed with high-fat diet", "assay": "Weight increasing of mice with high-fat diet (Embodiment 2)", "assay_type": "in vivo", "conditions": "5 and 10 mg/kg i.p. twice a week", "method": "C57BL/6J male mice at 6-8 weeks old were used as research subjects, and an experiment was carried out after adaptation to a SPF animal room for one week. The mice were fed with high-fat diet (with 60% of fat content) for 10 weeks to induce obesity phenotype in mice. At the same time, different drug concentrations (5 mg/kg and 10 mg/kg) were provided, and the milk-derived polypeptide derivatives corresponding to SEQ ID NO.5 were administered by intraperitoneal injection twice a week, with dissolved normal saline (Vehicle) as a control. The mice are weighed to obtain body weight and their food intake calculated every week. After the mice were killed, brown fat (BAT) at scapular, inguinal white adipose tissue (iWAT) and epididymal white adipose tissue (eWAT) were photographed, weighed to obtain wet weight and lean mass of the mice was calculated."}, "[10]": {"conditions": "previous studies; can scavenge free radicals produced in vivo; cited from earlier work"}, "[11]": {"conditions": "10 mg/kg i.p. once a day for 8 weeks after six months high-fat diet, FIG. 11"}}, "data": [{"sequence": "GRKKRRQRRRPPQQVKEAMAPK [SEQ ID NO.5, theone tested in Embodiments 2-6]", "values": [{"measurement": "expression of UCP1 in two kinds of adipose tissues (immunohistochemistry and Western blot)", "setting": "[1]", "result": "increased"}, {"measurement": "body weight of the obese mice", "setting": "[2]; [11]", "result": "significantly reduced"}, {"measurement": "fasting blood glucose", "setting": "[2]; [11]", "result": "decreased"}, {"measurement": "tissue volumes of white fat (subcutaneous and abdominal) and brown fat (scapular areas)", "setting": "[2]; 10 mg/kg i.p. once a day for 8 weeks, after dissection, FIG. 12", "result": "significantly reduced"}, {"measurement": "effect on UCP1 protein content at low drug concentration (Western blot)", "setting": "[3]; 5 mg/Kg, FIG. 10", "result": "good effect"}, {"measurement": "UCP1 immunohistochemistry brown areas in brown and white adipose tissues", "setting": "[3]; 10 weeks, 5 and 10 mg/kg i.p. twice a week, FIG. 9", "result": "significantly increased"}, {"measurement": "contents of the UCP1 protein in brown and white adipose tissues (Western blot)", "setting": "[3]; 10 weeks, 5 and 10 mg/kg, certain dose-dependent relationship, FIG. 10", "result": "significantly increased"}, {"measurement": "blood lipid (triglyceride) level", "setting": "[4]", "result": "significantly reduced"}, {"measurement": "fasting blood glucose level", "setting": "[4]", "result": "significantly reduced"}, {"measurement": "insulin level", "setting": "[4]", "result": "significantly reduced"}, {"measurement": "sizes of the lipid droplets in the two tissues (H&E staining)", "setting": "[5]", "result": "decreased significantly"}, {"measurement": "area under the curve (GTT)", "setting": "[6]; 10 mg/kg for 10 weeks", "result": "significant statistical significance"}, {"measurement": "blood glucose levels within 2 hours after glucose injection vs control", "setting": "[6]; continuous intervention for 10 weeks, 5 and 10 mg/kg, glucose 1 g per kg i.p.", "result": "lower than those of the control group"}, {"measurement": "insulin sensitivity (ITT)", "setting": "[7]; 5 mg/kg, FIG. 7", "result": "certain statistical significance"}, {"measurement": "blood glucose levels within 2 hours after insulin injection vs control", "setting": "[7]; continuous intervention for 10 weeks, 5 and 10 mg/kg, insulin 0.75 U per kg i.p.", "result": "lower than those of the control group"}, {"measurement": "morphology sizes of lipid droplets in brown fat and white adipose tissues (H&E staining)", "setting": "[8]", "result": "significantly reduced"}, {"measurement": "fat content (wet weight test of the adipose tissues)", "setting": "[9]; 10 weeks, FIG. 4", "result": "decreased significantly"}, {"measurement": "lean mass of the mice", "setting": "[9]; 10 weeks, FIG. 5", "result": "no significant change"}, {"measurement": "volumes of subcutaneous and abdominal white adipose tissues", "setting": "[9]; after dissection, 10 weeks, FIG. 3", "result": "decreased significantly"}, {"measurement": "weight of the mice vs control group (Vehicle)", "setting": "[9]; by 10th week", "result": "significantly lower"}]}, {"sequence": "VKEAMAPK [Val-Lys-Glu-Ala-Met-Ala-Pro-Lys, isolated linear milk-derived polypeptide from β-casein 98-105 amino acids]", "values": [{"measurement": "antioxidant activity", "setting": "[10]", "result": "antioxidant activity"}]}]}
